According to BindingDB's records for doi:10.1021/jm00364a029 (1983):

Columns and labels:
[1] = target: cGMP-dependent 3',5'-cyclic phosphodiesterase (Homo sapiens, UniProt O00408); assay: ChEBML_217498
Description: Inhibition of human lung low-affinity cGMP phosphodiesterases (10-50 uM/L)

[2] = target: cGMP-specific 3',5'-cyclic phosphodiesterase (Homo sapiens, UniProt O76074); assay: ChEBML_217497
Description: Inhibition of human lung high-affinity cGMP phosphodiesterases (0.5-2 uM/L)

Sequence of cGMP-dependent 3',5'-cyclic phosphodiesterase (O00408 whole entry): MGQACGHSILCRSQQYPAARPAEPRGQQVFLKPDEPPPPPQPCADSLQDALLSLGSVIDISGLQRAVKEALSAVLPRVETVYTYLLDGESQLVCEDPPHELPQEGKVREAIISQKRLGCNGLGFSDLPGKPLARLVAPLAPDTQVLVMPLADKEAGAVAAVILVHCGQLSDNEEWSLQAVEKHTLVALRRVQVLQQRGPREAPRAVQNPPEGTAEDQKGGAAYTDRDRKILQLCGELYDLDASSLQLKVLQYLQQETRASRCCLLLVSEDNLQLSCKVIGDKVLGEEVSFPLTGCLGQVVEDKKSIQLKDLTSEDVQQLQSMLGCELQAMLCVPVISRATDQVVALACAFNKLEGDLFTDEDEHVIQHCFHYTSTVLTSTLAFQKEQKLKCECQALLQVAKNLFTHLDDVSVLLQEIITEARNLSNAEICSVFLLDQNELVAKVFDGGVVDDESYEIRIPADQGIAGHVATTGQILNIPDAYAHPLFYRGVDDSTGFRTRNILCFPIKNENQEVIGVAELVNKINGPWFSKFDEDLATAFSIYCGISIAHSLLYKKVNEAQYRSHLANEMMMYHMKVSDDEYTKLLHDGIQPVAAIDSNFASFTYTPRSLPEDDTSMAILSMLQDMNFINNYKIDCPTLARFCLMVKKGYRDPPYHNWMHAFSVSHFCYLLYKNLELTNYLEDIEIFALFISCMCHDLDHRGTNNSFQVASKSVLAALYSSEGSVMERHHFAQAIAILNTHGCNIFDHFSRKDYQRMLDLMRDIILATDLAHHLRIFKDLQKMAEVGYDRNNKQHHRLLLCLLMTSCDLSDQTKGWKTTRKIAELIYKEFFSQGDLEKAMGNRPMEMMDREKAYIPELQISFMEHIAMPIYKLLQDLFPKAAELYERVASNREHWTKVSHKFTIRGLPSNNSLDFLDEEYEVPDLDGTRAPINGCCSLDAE

Row | Ki [1] [µM] | Ki [2] [µM] | SMILES
1 | 700 | 600 | C[C@H](O)Cn1cnc2c1c(=O)n(C)c(=O)n2C [(S)-7-(2-hydroxypropyl)-1,3-dimethyl-1H-purine-2,6(3H,7H)-dione]
2 | 600 | 600 | C[C@@H](O)Cn1cnc2c1c(=O)n(C)c(=O)n2C [(R)-7-(2-hydroxypropyl)-1,3-dimethyl-1H-purine-2,6(3H,7H)-dione]
3 | 600 | 600 | CC(O)Cn1cnc2c1c(=O)n(C)c(=O)n2C (stereo unspecified) [7-(2-Hydroxy-propyl)-1,3-dimethyl-3,7-dihydro-purine-2,6-dione(Proxyphylline)]
